What all share (assay type): in vivo
Experiment [1] concerns leptin receptor deficient transgenic mouse model (db/db). The experiment in a line: blood glucose levels in mouse model of severe type 2 diabetes and obesity. The note with it: for blood glucose levels: mouse model of severe type 2 diabetes and obesity, FIG. 5 (Formula (I), 11 days), FIG. 7 (Formula (II), 19 days or 29-30 days). The procedure:
(§1) Fed blood glucose levels were measured over a period of 28 days. Fasting glucose levels were measured on days 19, 29, and 30. Glucose clearance was measured using the glucose tolerance test on days 29 and 30. Body weight was also measured as compounds may regulate the expression of genes that are involved in obesity.

The test system is the same in experiment [2]. Put plainly: liver enzymes (ALT and AST) in blood serum, mouse model of Type 2 diabetes and severe obesity. The note with it: after 29-30 days; FIG. 11.
A short description of experiment [3]: body weight in mouse model of severe type 2 diabetes and obesity. The settings on record: after 9 days of treatment; FIG. 8. As for the experimental part: as §1

`O=C(O)c1ccnc(C(=O)O)c1` [Formula (I), 2,4-pyridinedicarboxylic acid]: the “fed and fasting glucose levels” value in experiment [1] (after 11 days of treatment, FIG. 5) is “decrease in fed and fasting glucose levels”. Besides, the blood glucose levels result in experiment [1] is “significantly decrease blood glucose levels”. For the same molecule, in experiment [2], the “lowering of enzymes (ALT and AST) associated with liver disease measured in blood serum” value is on record as 68%.
`O=C(O)CCNc1cc(N2CCc3ccccc3CC2)nc(-c2ccccn2)n1` [Formula (II)]: the blood glucose levels entry in experiment [1] was “significantly decrease blood glucose levels”.
For `CN(C)c1ccc(C(=O)NCCCCCC(=O)NO)cc1` [Formula (III)], the body weight entry in experiment [3] is on record as “significantly decrease body weight”.

The record behind these values is patent US20190374525A1, “TREATMENT OF DIABETES AND ASSOCIATED METABOLIC CONDITIONS WITH EPIGENETIC MODULATORS” (Temple Otorongo LLC, priority 2017, published 2019).
